Source: ChEMBL document CHEMBL1201862, “PubChem BioAssay data set” (2004)
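Dose response: 5 concentrations. Exposure: 48 h. Format: 96-well plates. Endpoint: linear interpolation; highest concentration if not reached. GI50: concentration for 50% inhibition of growth.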 Calls of active or inactive are those of the source. Rule as the data show it: active = GI50 up to about 1.1 µM and inactive = higher.

What was measured:
Test in all cases: inhibition of tumour cell growth, NCI panel, 48 h
DMS-273 = tested on: DMS-273
HOP-18 = tested on: HOP-18
KM-20L2 = tested on: KM-20L2
LXFL 529 = tested on: LXFL 529
M19-MEL = tested on: M19-MEL
SNB-78 = tested on: SNB-78
XF498 = tested on: XF498
DLD-1 = tested on: DLD-1
RXF 631 = tested on: RXF 631

`CC(C)(Oc1ccc2c(=O)cc(-c3ccccc3)oc2c1)C(=O)Nc1c(Cl)cccc1Cl` was tested, and the GI50 (DMS-273) was 64.4 µM (inactive), the GI50 (HOP-18) was > 100 µM (inactive) and the GI50 (KM-20L2) was > 100 µM (inactive). The GI50 (LXFL 529) was 81.7 µM (inactive), the GI50 (M19-MEL) was 68.2 µM (inactive) and the GI50 (SNB-78) was > 100 µM (inactive). For the same compound, the GI50 (XF498) was 14.3 µM (inactive).
With `O=C(/C=C/c1ccccc1)/C=C/c1ccccc1O` the GI50 (DLD-1) was 18 µM (inactive), the GI50 (HOP-18) was 0.488 µM (active) and the GI50 (KM-20L2) was 19.1 µM (inactive). For the same compound, the GI50 (LXFL 529) was 16.8 µM (inactive), the GI50 (M19-MEL) was 17.9 µM (inactive) and the GI50 (SNB-78) was 37.3 µM (inactive). For the same compound, the GI50 (XF498) was 49.1 µM (inactive).
With `COC(=O)c1ccc(Cc2ccc(C(=O)OC)o2)o1` the GI50 (DLD-1) was > 378 µM (inactive), the GI50 (DMS-273) was > 378 µM (inactive) and the GI50 (HOP-18) was 38.5 µM (inactive). For the same compound, the GI50 (KM-20L2) was > 378 µM (inactive), the GI50 (LXFL 529) was > 378 µM (inactive) and the GI50 (M19-MEL) was > 378 µM (inactive). For the same compound, the GI50 (RXF 631) was > 378 µM (inactive).
With `CO/C=C/c1cc2c(cc1C(OC)OC)OCO2` the GI50 (DLD-1) was 36.1 µM (inactive), the GI50 (DMS-273) was 30.3 µM (inactive) and the GI50 (KM-20L2) was 35.2 µM (inactive). The GI50 (M19-MEL) was 76.4 µM (inactive), the GI50 (RXF 631) was 43.7 µM (inactive) and the GI50 (SNB-78) was > 100 µM (inactive). The GI50 (XF498) was 33.4 µM (inactive).
With `Clc1ccc(CN2COc3c(cc(Cl)c4cccnc34)C2)cc1` the GI50 (DLD-1) was 2.52 µM (inactive), the GI50 (DMS-273) was 1.78 µM (inactive) and the GI50 (HOP-18) was 3.96 µM (inactive). For the same compound, the GI50 (KM-20L2) was 14.3 µM (inactive), the GI50 (LXFL 529) was 1.36 µM (inactive) and the GI50 (M19-MEL) was 2.28 µM (inactive). The GI50 (RXF 631) was 10.3 µM (inactive), the GI50 (SNB-78) was 4.79 µM (inactive) and the GI50 (XF498) was 0.973 µM (active).
For `CC1=NN(C(=O)Cc2ccccc2)C(=O)/C1=C\c1ccc(O)cc1`, the GI50 (DLD-1) was > 100 µM (inactive), the GI50 (KM-20L2) was > 100 µM (inactive) and the GI50 (LXFL 529) was > 100 µM (inactive). The GI50 (M19-MEL) was > 100 µM (inactive), the GI50 (SNB-78) was 36.8 µM (inactive) and the GI50 (XF498) was > 100 µM (inactive).
`Nc1nc2c(nnn2C2C=C(CO)C(O)C2O)c(=O)[nH]1` (stereo not drawn) was tested, and the GI50 (DLD-1) was > 100 µM (inactive), the GI50 (DMS-273) was > 100 µM (inactive) and the GI50 (HOP-18) was > 100 µM (inactive). For the same compound, the GI50 (KM-20L2) was > 100 µM (inactive), the GI50 (LXFL 529) was > 100 µM (inactive) and the GI50 (M19-MEL) was > 100 µM (inactive). For the same compound, the GI50 (SNB-78) was 95.3 µM (inactive) and the GI50 (XF498) was > 100 µM (inactive).
`NNC(=S)N/N=C(\c1nc2ccc(Cl)cc2nc1O)C(O)c1ccc(Cl)cc1Cl` (stereo not drawn) was tested, and the GI50 (DLD-1) was > 100 µM (inactive), the GI50 (DMS-273) was > 100 µM (inactive) and the GI50 (HOP-18) was > 100 µM (inactive). The GI50 (KM-20L2) was > 100 µM (inactive), the GI50 (LXFL 529) was > 100 µM (inactive) and the GI50 (M19-MEL) was > 100 µM (inactive). The GI50 (RXF 631) was > 100 µM (inactive), the GI50 (SNB-78) was > 100 µM (inactive) and the GI50 (XF498) was > 100 µM (inactive).
In the case of `COC(=O)C1C(O)CC(c2ccccn2)N(Cc2ccccc2)C1c1ccccn1` (stereo not drawn), the GI50 (DLD-1) was > 100 µM (inactive), the GI50 (DMS-273) was > 100 µM (inactive) and the GI50 (HOP-18) was > 100 µM (inactive). The GI50 (KM-20L2) was > 100 µM (inactive), the GI50 (LXFL 529) was > 100 µM (inactive) and the GI50 (M19-MEL) was > 100 µM (inactive). For the same compound, the GI50 (RXF 631) was > 100 µM (inactive) and the GI50 (SNB-78) was > 100 µM (inactive).
With `O=C(O)CN(c1ccc(Cl)cc1)S(=O)(=O)c1ccccc1` the GI50 (DLD-1) was > 100 µM (inactive), the GI50 (DMS-273) was > 100 µM (inactive) and the GI50 (HOP-18) was > 100 µM (inactive). For the same compound, the GI50 (KM-20L2) was > 100 µM (inactive), the GI50 (LXFL 529) was > 100 µM (inactive) and the GI50 (M19-MEL) was > 100 µM (inactive). For the same compound, the GI50 (RXF 631) was > 100 µM (inactive) and the GI50 (XF498) was > 100 µM (inactive).
In the case of `CC1=C(C(=O)Nc2ccc([N+](=O)[O-])cc2)C(c2ccc(N(C)C)cc2)C(C(=O)Nc2ccc([N+](=O)[O-])cc2)=C(C)N1`, the GI50 (DLD-1) was 11.9 µM (inactive), the GI50 (KM-20L2) was 11.4 µM (inactive) and the GI50 (LXFL 529) was 16.8 µM (inactive). For the same compound, the GI50 (M19-MEL) was 15.6 µM (inactive) and the GI50 (SNB-78) was 29.2 µM (inactive).
For `Cc1ccc(Nc2ccc(Nc3ccc(C)cc3)c3c2C(=O)c2c(O)ccc(O)c2C3=O)cc1`, the GI50 (DLD-1) was > 100 µM (inactive), the GI50 (DMS-273) was > 100 µM (inactive) and the GI50 (LXFL 529) was 75.2 µM (inactive). The GI50 (M19-MEL) was > 100 µM (inactive), the GI50 (SNB-78) was 68.1 µM (inactive) and the GI50 (XF498) was > 100 µM (inactive).
In the case of `O=C(O)CCSC(=S)Nc1ccc([N+](=O)[O-])cc1`, the GI50 (DMS-273) was 75.9 µM (inactive), the GI50 (KM-20L2) was > 100 µM (inactive) and the GI50 (LXFL 529) was 46.6 µM (inactive). For the same compound, the GI50 (SNB-78) was > 100 µM (inactive).
`COC(=O)C(=O)C(C(=O)C1=NS(=O)(=O)c2cc(S(N)(=O)=O)c(Cl)cc2N1)c1nc2ccc(C(=O)c3ccccc3)cc2nc1O` (stereo not drawn) was tested, and the GI50 (DMS-273) was > 100 µM (inactive), the GI50 (HOP-18) was > 100 µM (inactive) and the GI50 (KM-20L2) was > 100 µM (inactive). For the same compound, the GI50 (LXFL 529) was 38.9 µM (inactive), the GI50 (M19-MEL) was > 100 µM (inactive) and the GI50 (RXF 631) was 86.9 µM (inactive). The GI50 (SNB-78) was 85.1 µM (inactive) and the GI50 (XF498) was 39 µM (inactive).
With `CCc1cccc(CC)c1NC(=O)/C(Cl)=C(/Cl)C(=O)O` the GI50 (DLD-1) was 22.8 µM (inactive), the GI50 (DMS-273) was 50 µM (inactive) and the GI50 (HOP-18) was 24.3 µM (inactive). For the same compound, the GI50 (KM-20L2) was 43.8 µM (inactive), the GI50 (LXFL 529) was 13.6 µM (inactive) and the GI50 (M19-MEL) was 31.6 µM (inactive). For the same compound, the GI50 (SNB-78) was 37.7 µM (inactive) and the GI50 (XF498) was 22.6 µM (inactive).
For `COC(=O)C(C(=O)C(=O)Nc1cccc(OC)c1)c1cnc2ccccc2n1` (stereo not drawn), the GI50 (DLD-1) was > 100 µM (inactive), the GI50 (DMS-273) was > 100 µM (inactive) and the GI50 (HOP-18) was > 100 µM (inactive). The GI50 (KM-20L2) was > 100 µM (inactive), the GI50 (LXFL 529) was > 100 µM (inactive) and the GI50 (RXF 631) was > 100 µM (inactive). For the same compound, the GI50 (SNB-78) was > 100 µM (inactive) and the GI50 (XF498) was > 100 µM (inactive).
In the case of `CN1CC(=O)N(C)c2ncn(Cc3ccccc3)c2C1=O`, the GI50 (DLD-1) was > 100 µM (inactive), the GI50 (DMS-273) was > 100 µM (inactive) and the GI50 (HOP-18) was > 100 µM (inactive). The GI50 (LXFL 529) was > 100 µM (inactive), the GI50 (M19-MEL) was > 100 µM (inactive) and the GI50 (RXF 631) was 4.68 µM (inactive). For the same compound, the GI50 (SNB-78) was > 100 µM (inactive) and the GI50 (XF498) was 17 µM (inactive).
